Measured values reported in ChEMBL document CHEMBL3286174, “Orally active 7-substituted (4-benzylphthalazin-1-yl)-2-methylpiperazin-1-yl]nicotinonitriles as active-site inhibitors of sphingosine 1-phosphate lyase for the treatment of multiple sclerosis” (J Med Chem, 2014).

Columns and labels:
[1] = molecular target: T1, Sphingosine-1-phosphate lyase 1 (Homo sapiens, UniProt O95470); assay: biochemical
T1 sequence (O95470 whole entry): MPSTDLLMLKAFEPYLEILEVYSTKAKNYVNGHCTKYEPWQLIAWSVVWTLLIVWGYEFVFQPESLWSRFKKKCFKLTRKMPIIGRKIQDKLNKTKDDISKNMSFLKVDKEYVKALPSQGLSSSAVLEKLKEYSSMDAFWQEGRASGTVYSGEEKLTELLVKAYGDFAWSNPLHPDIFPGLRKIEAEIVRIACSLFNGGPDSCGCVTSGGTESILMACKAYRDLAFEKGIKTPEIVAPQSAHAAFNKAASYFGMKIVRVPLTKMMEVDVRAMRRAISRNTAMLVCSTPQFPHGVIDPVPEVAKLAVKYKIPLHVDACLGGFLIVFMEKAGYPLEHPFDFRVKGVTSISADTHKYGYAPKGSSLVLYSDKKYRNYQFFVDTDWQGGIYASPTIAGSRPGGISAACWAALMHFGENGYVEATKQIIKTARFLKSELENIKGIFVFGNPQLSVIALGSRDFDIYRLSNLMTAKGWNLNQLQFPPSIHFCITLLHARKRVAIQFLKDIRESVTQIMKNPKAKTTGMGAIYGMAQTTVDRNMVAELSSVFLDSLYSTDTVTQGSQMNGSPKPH
Description: Inhibition of human recombinant S1PL (62 to 568) expressed in Sf9 insect cells using S1P as substrate after 1 hr

[2] = Tmax in Sprague-Dawley rat at 3 mg/kg, po; assay type: ADME, organism-based; set-up: dose 3 mg/kg, route oral; settings: in vivo
[3] = test system: Rattus norvegicus; assay: Reduction of peripheral CD4+ T cell level in Wistar rat at 50 mg/kg, po after 14 to 24 hrs by flow cytometry analysis; assay type: functional; set-up: scale not given: the % may be the effect or the level left
[4] = test system: Rattus norvegicus; assay: Antiinflammatory activity in incomplete Freund's adjuvant-induced autoimmune encephalomyelitis DA rat model assessed as S1P level in brain at 2 mg/kg, po bid administered 2 days before the induction of EAE; assay type: functional
[5] = test system: Rattus norvegicus; assay: Reduction of peripheral B cell level in Wistar rat at 2 mg/kg, po administered ever 12 hrs for 4 times measured 12 hrs after last dose by flow cytometry analysis; assay type: functional; set-up: scale not given: the % may be the effect or the level left
[6] = test system: Rattus norvegicus; assay: Reduction of peripheral CD4+ and CD8+ T cell level in Wistar rat at 2 mg/kg, po administered ever 12 hrs for 4 times measured 12 hrs after last dose by flow cytometry analysis; assay type: functional; set-up: scale not given: the % may be the effect or the level left
[7] = AUC (0 to infinity) in Sprague-Dawley rat at 3 mg/kg, po; assay type: ADME, organism-based, Plasma; set-up: time infinity, dose 3 mg/kg, route oral; settings: blood
[8] = Plasma concentration in Wistar rat at 2 mg/kg, po administered ever 12 hrs for 4 times measured 12 hrs after last dose; assay type: ADME, organism-based; set-up: dose 2 mg/kg, route oral
[9] = test system: Rattus norvegicus; assay: Antiinflammatory activity in incomplete Freund's adjuvant-induced autoimmune encephalomyelitis DA rat model assessed as S1P level in lymph node at 2 mg/kg, po bid administered 2 days before the induction of EAE relative to control; assay type: functional
[10] = molecular target: Protein smoothened (Homo sapiens, UniProt Q99835); assay: Antagonist activity at smoothened (unknown origin)
[11] = Drug level in brain of incomplete Freund's adjuvant-induced autoimmune encephalomyelitis DA rat model at 2 mg/kg, po bid administered 2 days before the induction of EAE; assay type: organism-based; set-up: dose 2 mg/kg, route oral; settings: read-out: Drug uptake
[12] = Oral bioavailability in Sprague-Dawley rat at 3 mg/kg; assay type: ADME, organism-based; settings: in vivo
[13] = Cmax in Sprague-Dawley rat at 3 mg/kg, po; assay type: ADME, organism-based; set-up: dose 3 mg/kg, route oral; settings: in vivo
[14] = Blood clearance in Sprague-Dawley rat at 1 mg/kg, iv; assay type: ADME, organism-based; set-up: dose 1 mg/kg, route intravenous; settings: whole blood
[15] = Half life in Sprague-Dawley rat at 1 mg/kg, iv; assay type: ADME, organism-based; set-up: dose 1 mg/kg, route intravenous; settings: in vivo
[16] = Drug level in blood of incomplete Freund's adjuvant-induced autoimmune encephalomyelitis DA rat model at 2 mg/kg, po bid administered 2 days before the induction of EAE; assay type: organism-based; set-up: dose 2 mg/kg, route oral; settings: whole blood, read-out: Drug uptake
[17] = molecular target: T1, Sphingosine-1-phosphate lyase 1; assay: Inhibition of S1PL (unknown origin)

Chain of Protein smoothened (Q99835 whole entry): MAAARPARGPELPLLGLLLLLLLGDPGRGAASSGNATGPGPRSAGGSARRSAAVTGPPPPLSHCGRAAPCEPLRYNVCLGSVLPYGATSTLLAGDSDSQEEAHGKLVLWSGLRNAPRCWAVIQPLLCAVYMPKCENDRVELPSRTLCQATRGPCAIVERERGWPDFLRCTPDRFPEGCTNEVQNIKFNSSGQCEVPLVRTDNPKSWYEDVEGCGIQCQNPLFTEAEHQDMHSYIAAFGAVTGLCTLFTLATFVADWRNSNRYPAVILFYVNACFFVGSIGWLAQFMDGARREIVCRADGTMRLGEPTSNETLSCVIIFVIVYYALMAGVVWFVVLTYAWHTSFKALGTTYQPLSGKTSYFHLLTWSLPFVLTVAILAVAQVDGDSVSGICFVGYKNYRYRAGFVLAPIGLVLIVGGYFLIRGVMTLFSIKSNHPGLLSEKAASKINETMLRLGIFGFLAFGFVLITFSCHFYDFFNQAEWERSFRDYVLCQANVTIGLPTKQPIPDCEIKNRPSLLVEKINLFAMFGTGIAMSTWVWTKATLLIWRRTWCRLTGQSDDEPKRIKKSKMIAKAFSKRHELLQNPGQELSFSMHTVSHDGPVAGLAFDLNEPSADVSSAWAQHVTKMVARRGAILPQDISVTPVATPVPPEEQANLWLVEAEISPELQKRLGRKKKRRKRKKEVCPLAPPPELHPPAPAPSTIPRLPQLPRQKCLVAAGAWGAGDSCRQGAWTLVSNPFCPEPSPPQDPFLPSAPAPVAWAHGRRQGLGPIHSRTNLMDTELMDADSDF

Row | IC50 [1] | SMILES | further results
1 | 3.4 µM | CCOC(=O)c1ccc(N2CCN(c3nnc(Cc4ccccc4)c4ccccc34)C[C@H]2C)nc1 | –
2 | 30 µM | C[C@@H]1CN(c2nnc(Cc3ccccc3)c3ccccc23)CCN1c1ccc(C(F)(F)F)cn1 | –
3 | 0.74 µM | C[C@@H]1CN(c2nnc(Cc3ccccc3)c3ccccc23)CCN1c1ccc([N+](=O)[O-])cn1 | –
4 | > 30 µM | C[C@@H]1CN(c2nnc(Cc3ccccc3)c3ccccc23)CCN1c1ccc(C(=O)O)cn1 | –
5 | 1.7 µM | CC[C@@H]1CN(c2nnc(Cc3ccccc3)c3ccccc23)CCN1c1ccc(C#N)cn1 | –
6 | 2.5 µM | CC(C)[C@@H]1CN(c2nnc(Cc3ccccc3)c3ccccc23)CCN1c1ccc(C#N)cn1 | –
7 | > 30 µM | C[C@@H]1CN(c2nnc(Cl)c3ccccc23)CCN1c1ccc(C#N)cn1 | –
8 | > 30 µM | C[C@@H]1CN(c2nnc(-c3ccccc3)c3ccccc23)CCN1c1ccc(C#N)cn1 | –
9 | 30 µM | C[C@@H]1CN(c2nnc(CCc3ccccc3)c3ccccc23)CCN1c1ccc(C#N)cn1 | –
10 | 2.3 µM | C[C@@H]1CN(c2nnc(Cc3ccccc3)c3cc(Cl)ccc23)CCN1c1ccc(C#N)cn1 | –
11 | 0.21 µM | C[C@@H]1CN(c2nnc(Cc3ccccc3)c3ccc(Cl)cc23)CCN1c1ccc(C#N)cn1 | Tmax [2]: 5 h; Activity [3]: >80%; Activity [4]: 2.4 pmol/mg; Activity [5]: 70%; Activity [6]: >95%; AUC(0-inf) [7]: 1.3 µM·h; concentration at 12 h [8]: 400 nM; fold change (FC) [9]: 150; IC50 [10]: 0.44 µM; concentration at 48 h [11]: 610 nM; bioavailability [12]: 26%; Cmax [13]: 99 nM; clearance [14]: 23 mL/min/kg; half-life [15]: 9.1 h; concentration at 48 h [16]: 840 nM
12 | 12 µM | C[C@@H]1CN(c2nnc(Cc3ccccc3)c3cc(C(F)(F)F)ccc23)CCN1c1ccc(C#N)cn1 | –
13 | 0.1 µM | C[C@@H]1CN(c2nnc(Cc3ccccc3)c3ccc(C(F)(F)F)cc23)CCN1c1ccc(C#N)cn1 | –
14 | 1.3 µM | C[C@@H]1CN(c2nnc(Cc3ccccc3)c3cc(C#N)ccc23)CCN1c1ccc(C#N)cn1 | –
15 | – | C[C@@H]1CN(c2nnc(Cc3ccccc3)c3ccc(C#N)cc23)CCN1c1ccc(C#N)cn1 | IC50 [10]: > 25 µM
16 | – | CC(=O)c1nc([C@@H](O)[C@H](O)[C@H](O)CO)c[nH]1 | IC50 [17]: > 100 µM
17 | > 30 µM | C[C@H]1CN(c2nnc(Cc3ccccc3)c3ccccc23)CCN1c1ccc(C#N)cn1 | –
18 | 2.4 µM | C[C@@H]1CN(c2nnc(Cc3ccccc3)c3ccccc23)CCN1c1ccc(C#N)cn1 | –
19 | > 30 µM | N#Cc1ccc(N2CCN(c3nnc(Cc4ccccc4)c4ccccc34)CC2)nc1 | –
20 | > 30 µM | N#Cc1ccc(N2CCN(c3nnc(Cc4ccccc4)c4ccccc34)CC2CO)nc1 (single isomer, unassigned) | –
21 | 17 µM | CCCCCCCCc1ccc(CCC(N)(CO)CO)cc1 [FINGOLIMOD] | IC50 [17]: 17 µM
22 | – | C/C(=N\O)c1nc([C@@H](O)[C@H](O)[C@H](O)CO)c[nH]1 [LX-2931] | IC50 [17]: > 100 µM
